The record followed here is patent US20240124520A1, “N-ACYLATED HISTIDINE DIPEPTIDES AS ANTICANCER AGENTS” (THE BOARD OF TRUSTEES OF THE LELAND STANFORD JUNIOR …, priority 2019, published 2024).

SMILES strings stand for the structures. Non-standard residues stand in square brackets, D forms with d. Residues, ends and D or L forms follow the SMILES beside them. *: point of attachment. Palmitoyl = CCCCCCCCCCCCCCCC(=O)*

Assay [1] concerns MDA-MB-468 triple-negative human breast cancer cells. Briefly: Cell Titer Blue in vitro cell viability assay, MDA-MB-468. Particulars: 72 h, MDA-MB-468 (DMEM), 3 days at 37° C. In kind it is cell-based. The protocol: (§1) FIG. 9: Dose Response curve for MBC0179 with MDA-MB-468 cells. Compound MBC0179 was incubated with MDA-MB-468 triple-negative human breast cancer cells at the indicated concentrations for 3 days at 37° C. prior to Cell Titer Blue fluorescence-based cell viability assay. Normalized cell viability data, expressed as a percentage, are averaged from three biological replicates and standard error represented by error bars for each averaged data point (empty squares). The compound concentrations are represented on log scale on the x-axis in μM units. Data were analyzed using free software called DrFit, as described in Nature Scientific Reports, Article number: 14701, (2015). […]
(§2) The Cell Titer Blue reagent (available from Promega, Inc.) is a buffered solution containing resazurin, a compound that is converted to resorufin, a detectable fluorescent product, by metabolically active cells. The fluorescence intensity of resorufin product therefore serves as a proportional measure of the number of viable cells, permitting changes in cell viability within cancer or other cell lines to be monitored in response to the addition of cytotoxic or cytostatic agents. […] Metastases to the lungs may be conveniently quantified by a well-established clonogenic assay. […]
Background: Resazurin is reduced to fluorescent resorufin, in cell work by metabolically active cells.

For assay [2], the system named is ZR-75-30 human breast cancer cells. Briefly: Cell Titer Blue in vitro cell viability assay, ZR-75-30. In kind it is cell-based. Particulars: 72 h, ZR-75-30 (DMEM), 3 days at 37° C. As for the experimental part:
as §1, with “10:” for “9:”, “ZR-75-30” for “MDA-MB-468”, “ZR-75-30” for “MDA-MB-468 triple-negative”
as §2

Assay [3] has as its system K-562 human chronic myelogenous leukemia cells. Briefly: Cell Titer Blue in vitro cell viability assay, K-562. In kind it is cell-based. Particulars: 72 h, K562 (DMEM), in suspension, 3 days at 37° C. The protocol: as §1, with “11:” for “9:”, “K-562” for “MDA-MB-468”, “K-562” for “MDA-MB-468 triple-negative”, “chronic myelogenous leukemia cells, a non-adherent cell line,” for “breast cancer cells”
as §2

Assay [4] relates to 4T1 murine breast cancer cell line-derived mammary tumors, metastasis to the lungs. Briefly: 4T1 mouse breast cancer lung metastasis study (clonogenic assay). Particulars: Balb/c mice. In kind it is in vivo. The protocol:
FIG. 17: 4T1 Mouse Breast Cancer Lung Metastasis Study with MBC0179. Compound MBC0179 (in 7% w/v Cremophore EL/10% v/v ethanol/[…] vehicle) or vehicle only was administered intravenously to three groups of six Balb/c mice (8 week old) carrying 4T1 murine breast cancer cell line-derived mammary tumors, one week post-implantation. After twice weekly dosing for four weeks with vehicle (blue bar), 10 mg/kg (red bar) or 15 mg/kg (green bar) MBC0179, the mice were humanely euthanized according to IACUC guidelines and lungs excised for 4T1 colonogenic assay in order to provide a measure of 4T1 metastasis to the lungs. The colony counts were plotted, averaged and standard error calculated (error bars). […] Additonally, the percentage reduction in lung-derived 4T1 colonies between the vehicle and 15 mg/kg MBC0179 treatment group was calculated based on the average colony counts for each group, normalizing to the vehicle group, indicated on chart.
The Cell Titer Blue reagent (available from Promega, Inc.) is a buffered solution containing resazurin, a compound that is converted to resorufin, a detectable fluorescent product, by metabolically active cells. […] Metastases to the lungs may be conveniently quantified by a well-established clonogenic assay. […]

As usually defined, the IC50 is the point on the concentration scale where inhibition reaches its midpoint. Higher therefore signals weaker potency. On to `CCCCCCCCCCCCCCCC(=O)N[C@H](Cc1c[nH]cn1)C(=O)N[C@@H](C(=O)OCC)C(C)C` [Compound 5, N-[N-(1-oxohexadecyl)-D-histidyl]-D-valine ethyl ester] (Palmitoyl-[dH]-[dV]-OEt), for which the IC50 was found to be 15.7 µM in assay [1], 9.7 µM in assay [2] and 6.11 µM in assay [3]. Further, in assay [4] (10 mg/kg and 15 mg/kg intravenous twice weekly vs vehicle), the “lung metastases (average 4T1 colony counts)” value is “dose-dependent reduction in lung metastases”. Further, the “percent reduction in lung metastases” value in assay [4] (15 mg/kg intravenous twice weekly for four weeks vs vehicle, lung-derived 4T1 colonies, p=0.03, two-tailed t-test) was 74.4%.
